Measured values taken from US20250041380A1, “R[…] FOR SARS-COV2 DISEASE” (priority 2021, published 2025).
Like-named read-outs stand apart in the source and are kept apart here.

Key:
Bone cells (MG-63) = experiment: cells; format: cell-based; conditions: Spike S1 Protein (10 μg/ml); for inhibition at 0.1 µM / inhibition at 1 µM / inhibition at 10 µM / inhibition at 20 µM: Homo sapiens, MG-63
Kidney cells (HEK-293) = experiment: cells; format: cell-based; conditions: Spike S1 Protein (100 ng/ml); for inhibition at 0.1 µM / inhibition at 1 µM / inhibition at 10 µM / inhibition at 20 µM: Homo sapiens, HEK293
liver cells (HepG2) = experiment: cells; format: cell-based; conditions: Spike S1 Protein (20 μg/ml)
[1] = tested on: Endothelial cells (EA.hy926); experiment: cells; format: cell-based; conditions: Spike S1 Protein (1 μg/ml); for inhibition at 0.1 µM / inhibition at 1 µM / inhibition at 10 µM / inhibition at 20 µM: Homo sapiens, EA.hy 926
Lung (A549) cells = experiment: in vitro; format: cell-based, Human; conditions: 48 h
Method: (§1) A549 cells were plated in DMEM+10% FBS at a density of 10,000 cells/well in 96-well culture plates and incubated at 37° C. for 24 h. THP-1 cells were plated in RPMI+10% FBS at a density of 10,000 cells/well in 96-well culture plates and incubated at 37° C. for 24 h. Cells were sera-starved for 24 h. […] Untreated cells were used as control. Cells treated with dexamethasone and hydroxychloroquine were included as positive control. After treatment, cells were incubated in a 5% CO2 incubator for 48 h.

Cardiac cells (H9C2) = experiment: cells; format: cell-based; conditions: Spike S1 Protein (5 μg/ml); for inhibition at 0.1 µM / inhibition at 1 µM / inhibition at 10 µM / inhibition at 20 µM: Rattus norvegicus, H9c2
Colon cells (HT-29) = experiment: cells; format: cell-based; conditions: Spike S1 Protein (1 μg/ml); for inhibition at 0.1 µM / inhibition at 1 µM / inhibition at 10 µM / inhibition at 20 µM: Homo sapiens, HT-29
Bladder cells (T24) = experiment: tissue or blood; format: cell-based; conditions: Spike S1 Protein (5 μg/ml)
[2] = tested on: pancreatic cells (PANC-1); experiment: cells; format: cell-based; conditions: Spike S1 Protein (20 μg/ml)+
Immune (THP-1) cells = experiment: in vitro; format: cell-based, Human; conditions: 48 h
Method: as §1

[3] = 0.1 μM, read-out: % Inhibition (wrt Control), IL-6
[4] = 0.1 μM, read-out: % Inhibition (wrt Control), IL-8
[5] = 1 μM, read-out: % Inhibition (wrt Control), IL-6
[6] = 1 μM, read-out: % Inhibition (wrt Control), IL-8
[7] = 10 μM, read-out: % Inhibition (wrt Control), IL-6
[8] = 10 μM, read-out: % Inhibition (wrt Control), IL-8
[9] = 20 μM, read-out: % Inhibition (wrt Control), IL-6
[10] = 20 μM, read-out: % Inhibition (wrt Control), IL-8
[11] = 0.1 μM, read-out: % Inhibition (IL-6)
[12] = 0.1 μM, read-out: % Inhibition (IL-8)
[13] = 1 μM, read-out: % Inhibition (IL-6)
[14] = 1 μM, read-out: % Inhibition (IL-8)
[15] = 10 μM, read-out: % Inhibition (IL-6)
[16] = 10 μM, read-out: % Inhibition (IL-8)
[17] = 20 μM, read-out: % Inhibition (IL-6)
[18] = 20 μM, read-out: % Inhibition (IL-8)

## C[C@@H]1C[C@H]2[C@@H]3CCC4=CC(=O)C=C[C@]4(C)[C@@]3(F)[C@@H](O)C[C@]2(C)[C@@]1(O)C(=O)CO [Dexamethasone]
Bone cells (MG-63); 0.1 μM
  Con. of IL-8: 407.8 pg/mL
  Conc. of IL-6: 49.3 pg/mL
Bone cells (MG-63); 1 μM
  Con. of IL-8: 355.6 pg/mL
  Conc. of IL-6: 50.9 pg/mL
Bone cells (MG-63); 10 μM
  Con. of IL-8: 400.6 pg/mL
  Conc. of IL-6: 46.2 pg/mL
Bone cells (MG-63); 20 μM
  Con. of IL-8: 427.8 pg/mL
  Conc. of IL-6: 52.0 pg/mL
Bone cells (MG-63); [3]
  inhibition at 0.1 µM: 69.2%
Bone cells (MG-63); [4]
  inhibition at 0.1 µM: 42.4%
Bone cells (MG-63); [5]
  inhibition at 1 µM: 68.2%
Bone cells (MG-63); [6]
  inhibition at 1 µM: 49.8%
Bone cells (MG-63); [7]
  inhibition at 10 µM: 71.1%
Bone cells (MG-63); [8]
  inhibition at 10 µM: 43.4%
Bone cells (MG-63); [9]
  inhibition at 20 µM: 67.5%
Bone cells (MG-63); [10]
  inhibition at 20 µM: 39.6%
Kidney cells (HEK-293); 0.1 μM
  Con. of IL-8: 447.3 pg/mL
  Conc. of IL-6: 64.5 pg/mL
Kidney cells (HEK-293); 1 μM
  Con. of IL-8: 453.6 pg/mL
  Conc. of IL-6: 65.6 pg/mL
Kidney cells (HEK-293); 10 μM
  Con. of IL-8: 551.8 pg/mL
  Conc. of IL-6: 79.6 pg/mL
Kidney cells (HEK-293); 20 μM
  Con. of IL-8: 292.7 pg/mL
  Conc. of IL-6: 42.6 pg/mL
Kidney cells (HEK-293); [3]
  inhibition at 0.1 µM: 75.2%
Kidney cells (HEK-293); [4]
  inhibition at 0.1 µM: 76.6%
Kidney cells (HEK-293); [5]
  inhibition at 1 µM: 74.8%
Kidney cells (HEK-293); [6]
  inhibition at 1 µM: 76.3%
Kidney cells (HEK-293); [7]
  inhibition at 10 µM: 69.4%
Kidney cells (HEK-293); [8]
  inhibition at 10 µM: 71.2%
Kidney cells (HEK-293); [9]
  inhibition at 20 µM: 83.6%
Kidney cells (HEK-293); [10]
  inhibition at 20 µM: 84.7%
Liver cells (HepG2); 0.1 μM
  Conc. of IL-8: 91.4 pg/mL
Liver cells (HepG2); 1 μM
  Conc. of IL-8: 21.5 pg/mL
Liver cells (HepG2); 10 μM
  Conc. of IL-8: 64.4 pg/mL
Liver cells (HepG2); 20 μM
  Conc. of IL-8: 23.9 pg/mL
Liver cells (HepG2); Homo sapiens, HepG2, 0.1 μM, read-out: % Inhibition (wrt Control ), IL-8
  inhibition at 0.1 µM: 81.7%
Liver cells (HepG2); Homo sapiens, HepG2, 1 μM, read-out: % Inhibition (wrt Control ), IL-8
  inhibition at 1 µM: 95.7%
Liver cells (HepG2); Homo sapiens, HepG2, 10 μM, read-out: % Inhibition (wrt Control ), IL-8
  inhibition at 10 µM: 87.1%
Liver cells (HepG2); Homo sapiens, HepG2, 20 μM, read-out: % Inhibition (wrt Control ), IL-8
  inhibition at 20 µM: 95.2%
[1]; 0.1 μM
  Con. of IL-8: 1208.6 pg/mL
[1]; 1 μM
  Con. of IL-8: 1250.3 pg/mL
  Conc. of IL-6: 42.9 pg/mL
[1]; 10 μM
  Con. of IL-8: 1633.7 pg/mL
  Conc. of IL-6: 53.9 pg/mL
[1]; 20 μM
  Con. of IL-8: 1766.1 pg/mL
  Conc. of IL-6: 72.9 pg/mL
[1]; 0.1 μM, read-out: % Inhibition (wrt, IL-6)
  inhibition at 0.1 µM: 85.7%
[1]; 0.1 μM, read-out: % Inhibition (wrt, IL-8)
  inhibition at 0.1 µM: 25.2%
[1]; 1 μM, read-out: % Inhibition (wrt, IL-6)
  inhibition at 1 µM: 87.3%
[1]; 1 μM, read-out: % Inhibition (wrt, IL-8)
  inhibition at 1 µM: 22.6%
[1]; 10 μM, read-out: % Inhibition (wrt, IL-6)
  inhibition at 10 µM: 84%
[1]; 10 μM, read-out: % Inhibition (wrt, IL-8)
  inhibition at 10 µM: 0%
[1]; 20 μM, read-out: % Inhibition (wrt, IL-6)
  inhibition at 20 µM: 78.4%
[1]; 20 μM, read-out: % Inhibition (wrt, IL-8)
  inhibition at 20 µM: 0%
Lung (A549) cells; 0.1 μM
  % Viability: 122.7%
Lung (A549) cells; 1 μM
  % Viability: 76.3%
Lung (A549) cells; 5 μM
  % Viability: 90.0%
Lung (A549) cells; 10 μM
  % Viability: 82.6%
Lung (A549) cells; 20 μM
  % Viability: 69.5%
Cardiac cells (H9C2); 0.1 μM
  Con. of IL-8: 31.2
  Conc. of IL-6: 50.8
Cardiac cells (H9C2); 1 μM
  Con. of IL-8: 18.6
  Conc. of IL-6: 44.5
Cardiac cells (H9C2); 10 μM
  Con. of IL-8: 29.1
  Conc. of IL-6: 53.3
Cardiac cells (H9C2); 20 μM
  Con. of IL-8: 48.7
  Conc. of IL-6: 51.8
Cardiac cells (H9C2); [11]
  inhibition at 0.1 µM: 90%
Cardiac cells (H9C2); [12]
  inhibition at 0.1 µM: 97.8%
Cardiac cells (H9C2); [13]
  inhibition at 1 µM: 91.2%
Cardiac cells (H9C2); [14]
  inhibition at 1 µM: 98.7%
Cardiac cells (H9C2); [15]
  inhibition at 10 µM: 89.5%
Cardiac cells (H9C2); [16]
  inhibition at 10 µM: 98%
Cardiac cells (H9C2); [17]
  inhibition at 20 µM: 89.7%
Cardiac cells (H9C2); [18]
  inhibition at 20 µM: 96.6%
Colon cells (HT-29); 0.1 μM
  Con. of IL-8: 44.1 pg/mL
  Conc. of IL-6: 106.0 pg/mL
Colon cells (HT-29); 1 μM
  Con. of IL-8: 18.2 pg/mL
  Conc. of IL-6: 89.1 pg/mL
Colon cells (HT-29); 10 μM
  Con. of IL-8: 53.5 pg/mL
  Conc. of IL-6: 73.6 pg/mL
Colon cells (HT-29); 20 μM
  Con. of IL-8: 66.4 pg/mL
  Conc. of IL-6: 109.0 pg/mL
Colon cells (HT-29); [3]
  inhibition at 0.1 µM: 55%
Colon cells (HT-29); [4]
  inhibition at 0.1 µM: 93.4%
Colon cells (HT-29); [5]
  inhibition at 1 µM: 62.2%
Colon cells (HT-29); [6]
  inhibition at 1 µM: 97.3%
Colon cells (HT-29); [7]
  inhibition at 10 µM: 68.8%
Colon cells (HT-29); [8]
  inhibition at 10 µM: 92%
Colon cells (HT-29); [9]
  inhibition at 20 µM: 53.8%
Colon cells (HT-29); [10]
  inhibition at 20 µM: 90.1%
Bladder cells (T24); 0.1 μM
  Con. of IL-8: 2458.5
  Conc. of IL-6: 292.2
Bladder cells (T24); [11]
  inhibition at 0.1 µM: 49.4%
Bladder cells (T24); [12]
  inhibition at 0.1 µM: 42.5%
Bladder cells (T24); 1 μM
  Con. of IL-8: 2008.8
  Conc. of IL-6: 348.5
Bladder cells (T24); [13]
  inhibition at 1 µM: 39.7%
Bladder cells (T24); [14]
  inhibition at 1 µM: 53%
Bladder cells (T24); 10 μM
  Con. of IL-8: 2198.1
  Conc. of IL-6: 369.4
Bladder cells (T24); [15]
  inhibition at 10 µM: 36%
Bladder cells (T24); [16]
  inhibition at 10 µM: 48.6%
Bladder cells (T24); 20 μM
  Con. of IL-8: 2386.4
  Conc. of IL-6: 365.4
Bladder cells (T24); [17]
  inhibition at 20 µM: 36.7%
Bladder cells (T24); [18]
  inhibition at 20 µM: 44.2%
[2]; 0.1 μM
  Conc. of IL-8: 330.5 pg/mL
[2]; 1 μM
  Conc. of IL-8: 296.2 pg/mL
[2]; 10 μM
  Conc. of IL-8: 342.8 pg/mL
[2]; 20 μM
  Conc. of IL-8: 255.7 pg/mL
[2]; Homo sapiens, PANC-1, 0.1 μM, read-out: % Inhibition (wrt Control ), IL-8
  inhibition at 0.1 µM: 55.7%
[2]; Homo sapiens, PANC-1, 1 μM, read-out: % Inhibition (wrt Control ), IL-8
  inhibition at 1 µM: 60.3%
[2]; Homo sapiens, PANC-1, 10 μM, read-out: % Inhibition (wrt Control ), IL-8
  inhibition at 10 µM: 54.1%
[2]; Homo sapiens, PANC-1, 20 μM, read-out: % Inhibition (wrt Control ), IL-8
  inhibition at 20 µM: 65.7%
Immune (THP-1) cells; 0.1 μM
  % Viability: 110.0%
Immune (THP-1) cells; 1 μM
  % Viability: 98.2%
Immune (THP-1) cells; 5 μM
  % Viability: 83.1%
Immune (THP-1) cells; 10 μM
  % Viability: 95.6%
Immune (THP-1) cells; 20 μM
  % Viability: 104.3%
